This is an account of results in patent publication US6114175A, “Compound for the antemortem diagnosis of Alzheimer's Disease and in vivo imaging and prevention of amyloid deposition” (priority 1998, dated 2000).

“Also recorded” adds a separate entry of the source. Like-named read-outs stand apart in the source and are kept apart here. Some results are limits rather than exact numbers.

As usually defined, the Ki is a dissociation constant, usually derived from enzyme kinetics or from competition with a known ligand. For orientation: logD means the decadic logarithm of the distribution of all forms, ionised or not, between an organic phase and buffer at a given pH. A high value points to a more lipophilic compound. A word on the LD50: it is the dose expected to kill half of the subjects tested. Broadly, the Kd is a measure of binding affinity in units of concentration.

Series [1] has as its target T1, Aβ(10-43) (Homo sapiens, UniProt P05067). The series is described as follows: Inhibition of [^14 C]Chrysamine G binding to Aβ(10-43). Conditions: for potency/affinity relative to another compound: Congo red or the series.
Series [2] concerns PC-12 cells. Put plainly: Protection from Aβ(25-35)-induced toxicity in PC-12 cells (MTT reduction). Conditions: for protection against Aβ(25-35)-induced toxicity: 1 μM Aβ(25-35) (FIG. 14).
Series [3] is described as follows: Octanol/water partitioning. To be noted: phosphate buffered saline, pH 7.4.
In series [4] the test system is Aβ. Conditions: Lorenzo and Yankner; cited from earlier work.
For series [5] the following is noted: mouse; Tubis et al.; cited from earlier work.
In series [6] the test system is pancreatic islet cells. To be noted: cited from earlier work.
For series [7] the following is noted: cited from earlier work.
Series [8] concerns Aβ. Conditions: cited from earlier work.
Series [9] relates to control brain. Put plainly: Scatchard analysis of [^14 C]CG binding to control brain. Further details: species or system human.
Series [10] deals with control brain. Put plainly: Total [^14 C]Chrysamine G binding in control brain homogenates.
Series [11] deals with AD brain. The series is described as follows: Total [^14 C]Chrysamine G binding in AD brain homogenates.
Series [12] is described as follows: Tissue levels and metabolism of [^14 C]Chrysamine G in mice.
The subject of series [13] is AD brain. The series is described as follows: Scatchard analysis of [^14 C]CG binding to AD brain. On the set-up: species or system human.
The target of series [14] is T1, Aβ(10-43). Put plainly: Scatchard analysis of Chrysamine G binding to synthetic Aβ(10-43).
Series [15] concerns the target T1, Aβ(10-43).
The test system of series [16] is AD brain. The series is described as follows: Histologic staining of human AD brain sections. Conditions: fluorescence microscopy. On the procedure: 26: 241-242 (1973) with 1 mM 1,4-bis(3-carboxy-4-hydroxyphenylethenyl)-benzene substituted for Congo red, but the procedure was otherwise identical. Stained slides were examined using fluorescence microscopy.
(§1) The staining method was that of Stokes and Trickey, J. Clin. Pathol. 26: 241-242 (1973) with 1,4-bis(3-carboxy-4-hydroxyphenylethenyl)-benzene substituted for Congo red.

The test system of series [17] is transgenic mouse brain [Tg(HuAPP695.SWE)2576]. The series is described as follows: Histologic staining of transgenic mouse brain sections. Conditions: fluorescence microscopy.
Excerpt: as §1

T1 sequence (P05067 681-714): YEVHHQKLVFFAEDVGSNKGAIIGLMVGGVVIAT

As to `O=C(O)c1cc(N=Nc2ccc(-c3ccc(N=Nc4ccc(O)c(C(=O)O)c4)c(C(=O)O)c3)cc2C(=O)O)ccc1O` [3,3'-(COOH)2 CG], the “loss of activity from Chrysamine G” value in series [1] (relative to Chrysamine G) is 7 fold.
In the case of `O=C(O)c1c(O)ccc(N=Nc2ccc(-c3ccc(N=Nc4ccc(O)c(C(=O)O)c4O)cc3)cc2)c1O` [(6-OHSA)CG], the inhibition constant (Ki) in series [1] is 94 ± 20 nM. Also, the “potency/affinity relative to another compound” value in series [1] (relative to Chrysamine G) is given as “highest affinity compound in this series”.
`O=C(O)c1cc(N=Nc2ccccc2)ccc1O` [aniline derivative]: in [1], the Ki was 73000 nM and the “binding activity” value is “decrease in affinity”. Moreover, the “energy of binding (from Ki)” value in series [1] (Ki of 73 μM) worked out at 5.5 kcal/mol. For the same compound, the “expected energy of binding (one-half of Chrysamine G)” value in series [1] (predicted value) was “about 19 KJ/mole”.
Turning to `O=C(O)c1cc(F)cc(N=Nc2ccc(-c3ccc(N=Nc4cc(F)cc(C(=O)O)c4O)cc3)cc2)c1O` [(5-FSA)CG], in [1] (relative to Chrysamine G), the “potency/affinity relative to another compound” value is recorded as “one-third as potent as Chrysamine G itself”.
As for `Oc1ccc(N=Nc2ccc(-c3ccc(N=Nc4ccc(O)cc4)cc3)cc2)cc1` [phenol derivative], the “binding activity” value in series [1] is “completely destroyed binding affinity; also recorded: does not bind to synthetic Aβ”. Also, the “protection against Aβ(25-35)-induced toxicity” value in [2] was “no protective effects, and perhaps enhanced the toxicity of Aβ”.
Regarding `O=C(O)c1cc(N=Nc2ccc(-c3ccc(N=Nc4ccc(O)c(C(=O)O)c4)cc3S(=O)(=O)O)c(S(=O)(=O)O)c2)ccc1O` [2,2'-(SO3)2 CG], the “binding activity” value in series [1] was “inactivity”.
Regarding `Nc1c(/N=N/c2ccc(-c3ccc(/N=N/c4cc(S(=O)(=O)O)c5ccccc5c4N)cc3)cc2)cc(S(=O)(=O)O)c2ccccc12` [Congo red], in [3], the logD was -0.177. The Ki in series [1] (read-out: Ki for inhibition of [^14 C]Chrysamine G binding to Aβ(10-43), [^14 C]Chrysamine G 0.100-0.125 μM) worked out at 2800 nM. Also, in [4], the “effect on aggregation of Aβ” value is on record as “does inhibit aggregation of Aβ”. The LD50 in [5] is recorded as 190 mg/kg. Further, in series [6], the “effect on amylin toxicity to pancreatic islet cells” value was “inhibit pancreatic islet cell toxicity; also recorded: protect pancreatic islet cells from the toxicity caused by amylin”. For the same compound, in series [7] (guinea pig, in vivo), the “blood-brain barrier crossing” value was “does not cross the blood-brain barrier well”. Moreover, the brain/kidney ratio entry in series [7] (guinea pigs) is recorded as “approximately 0.07”. Further, in series [8], the “concentration for complete protection against Aβ-induced toxicity” value is no more than 20 µM and the “concentration for protection against Aβ-induced toxicity” value was “over 2 μM”. Also, the “effect on Aβ-induced neurotoxicity” value in [8] (in vitro) is “inhibits fibrillar Aβ neurotoxicity; also recorded: inhibits Aβ-induced neurotoxicity and cell degeneration in vitro”.
In the case of `O=C(O)c1cc(N=Nc2ccc(-c3ccc(N=Nc4ccc(O)c(C(=O)O)c4)c(Br)c3)cc2Br)ccc1O` [3,3'-Br2 CG], the “potency/affinity relative to another compound” value in series [1] (relative to Chrysamine G) was “about half that of Chrysamine G”.
For `O=C(O)c1ccccc1O` [salicylic acid], the “binding activity” value in series [1] is given as “total lack of binding activity; also recorded: inactivity”.
Turning to `O=C(O)c1cc(N=Nc2ccc(-c3ccc(N=Nc4ccc(O)c(C(=O)O)c4)c(Cl)c3)cc2Cl)ccc1O` [3,3'-Cl2 CG], in [1] (relative to Chrysamine G), the “potency/affinity relative to another compound” value was “about half that of Chrysamine G”.
For `O=C(O)c1cc(N=Nc2ccc(-c3ccc(N=Nc4ccc(O)c(C(=O)O)c4)cc3)cc2)ccc1O` [Chrysamine G, 4,4'-bis(3-carboxy-4-hydroxyphenylazo)-biphenyl], in series [9] (n = 6), the “Bmax, control brain (Table 1)” value is 0.576 ± .092 pmol/μg prot. In addition, the dissociation constant Kd in series [9] (n = 6, read-out: KD, control brain (Table 1)) came out at 470 ± 49 nM; in series [9] (single typical control, read-out: KD (typical control sample)), 480 nM; in series [13] (n = 5, read-out: KD, AD brain (Table 1)), 390 ± 48 nM; in series [13] (sample with 48 NP/×200 magnification, read-out: KD (typical AD brain sample)) it was 350 nM; in series [14] (read-out: KD, higher affinity component (Scatchard), Aβ(10-43), two-site model), 260 nM; in series [14] (read-out: KD, lower affinity component (Scatchard), less well defined) it was 4010 nM. The “Bmax (typical control sample)” value in series [9] (single typical control) was determined as 614 fmol/μg protein. Besides, the “total binding, Head of Caudate” value in series [10] (n = 4) is recorded as 73 ± 11 fmol/μg protein; in series [11] (AD, n = 7, p = 0.14), 123 ± 22 fmol/μg protein. Further, the “total binding, Frontal Pole” value in series [10] (n = 6) is reported as 58 ± 8 fmol/μg protein; in series [11] (AD, n = 10, p < 0.006) it was 124 ± 16 fmol/μg protein. Besides, the “total binding, Cerebellum” value in series [10] (n = 8) was 75 ± 13 fmol/μg protein; in [11] (AD, n = 11, p = 0.91), 73 ± 9 fmol/μg protein. Besides, the “total binding, Inferior Parietal” value stood at 76 ± 13 fmol/μg protein in series [10] (n = 8) and 137 fmol/μg protein in series [11] (AD, n = 11, p < 0.03). In addition, the “total binding, Superior Temporal” value in [10] (n = 8) was determined as 66 ± 17 fmol/μg protein; in [11] (AD, n = 11, p < 0.02), 121 ± 14 fmol/μg protein. The “total binding, Superior/Middle Frontal” value was found to be 54 ± 10 fmol/μg protein in [10] (n = 8) and 130 ± 21 fmol/μg protein in series [11] (AD, n = 11, p < 0.005). In addition, the “saturable (specific) binding as share of total binding in AD brain” value in [11] (20 μM unlabelled CG defines non-saturable) is reported as 60-80%. The “correlation (r) of [^14 C]CG binding with NPs” value in [11] (AD brains alone, p=0.007) was 0.59; in [11] (controls included, p=0.001) it was 0.69. In addition, the “correlation (r) of [^14 C]CG binding with NFTs” value in series [11] (AD brains alone, p=0.026) is reported as 0.50; in [11] (controls included, p=0.001), 0.60. Further, the “correlation (r) of CG binding with NP counts” value in [11] (brains with cerebrovascular amyloid, p=0.15) worked out at 0.49; in [11] (brains without amyloid angiopathy, p=0.01), 0.79. In addition, the “overlap of binding between control and AD samples” value in series [11] (superior/middle frontal cortex) was “no overlap between control and any of the AD samples”. Moreover, the log distribution coefficient (logD) in series [3] was 1.78. In addition, the “metabolism” value in series [12] (60 min after i.v. injection, brain and liver) was “no significant metabolism; also recorded: essentially all of the radioactivity found in the brain and liver proved to be unchanged Chrysamine G”. Further, the “entry into brain” value in series [12] (normal mouse brain) is “does get into normal mouse brain, and the brain/blood ratio is high”. In [13] (n = 5), the “Bmax, AD brain (Table 1)” value is 0.784 ± .061 pmol/μg prot. In series [13] (p=0.09, not significant), the “Bmax in AD brain higher than control” value is 36%. The “KD in AD brain lower than control” value in [13] (p=0.29, not significant) is reported as 16%. The “Bmax (typical AD brain sample)” value in [13] (sample with 48 NP/×200 magnification) is reported as 790 fmol/μg protein. In addition, the “protection against Aβ(25-35)-induced toxicity” value in series [2] is “protective effects at 0.1 and 1 μM”. Besides, the “protective effect dependence” value in series [2] (0.01 to 10 μM Aβ(25-35) and 0.03 to 20 μM CG) is “protective effect which is dependent on both the concentration of Aβ(25-35) (FIG. 12) as well as the concentration of Chrysamine G”. The minimal effective concentration in [2] (Rattus norvegicus, PC-12, 24 h, read-out: concentration at which protective effect is evident) is 0.2 µM. Further, in [2] (any of the Chrysamine G concentrations), the “MTT reduction in the absence of Aβ(25-35) vs control” value is reported as “no significant difference”. The “energy of binding (from KD)” value in [14] (KD 0.26 μM) was “roughly 38 KJ/mole”. Further, the “Bmax, lower affinity component” value in series [14] (less well defined) was 18.7 nmoles Chrysamine G/mg Aβ(10-43). Also, the “Bmax, higher affinity component” value in series [14] (two-site model) was 3.18 nmoles Chrysamine G/mg Aβ(10-43). In [15], the “dissociation t1/2” value came to 55 ± 9.4 s.
As to `O=C(O)c1cc(N=Nc2ccc(-c3ccc(N=Nc4ccc(O)c(C(=O)O)c4)c(I)c3)cc2)ccc1O` [3-ICG], the “potency/affinity relative to another compound” value in series [1] (relative to Chrysamine G) is listed as “slightly more potent than Chrysamine G”.
As to `O=C(O)c1cc(N=Nc2ccc(-c3ccc(N=Nc4ccc(O)c(C(=O)O)c4)c(I)c3)cc2I)ccc1O` [3,3'-I2 CG], the logD in [3] was 2.05. Also, the “potency/affinity relative to another compound” value in series [1] (relative to Chrysamine G) is recorded as “about half that of Chrysamine G”.
For the compound `O=C(O)c1cc(C=Cc2ccc(C=Cc3ccc(O)c(C(=O)O)c3)cc2)ccc1O` [1,4-bis(3-carboxy-4-hydroxyphenylethenyl)-benzene], the “staining of human AD brain” value in [16] is “much more intense than that observed with Chrysamine G, Congo red, or Thioflavin S; also recorded: Visible are a large number of neuritic plaques, a neurofibrillary tangle and frequent neuropil threads”. Further, the “staining of transgenic mouse brain” value in series [17] was “intensely stained plaque”.
